We go through nine compounds from patent US20240148821A1, “PHARMACEUTICAL USE OF CYCLIC PEPTIDE COMPOUND” (CHUGAI SEIYAKU KABUSHIKI KAISHA, priority 2021, published 2024).

Numbered stars: 1 amine (or outer) side, 2 acyl side, 3 side chain; on linkers, the order of the positions; unused ones are H or OH. Bridge positions count the residues as written; N and C are the ends. Square brackets hold non-standard residues; d marks the D form. Peptide text beside a SMILES is read from it. * marks the point of attachment. hPhe(3-Cl-4-CF3) = N[C@@H](CCc1ccc(C(F)(F)F)c(Cl)c1)C(=O)O; NMePhe(4-CF3) = CN[C@@H](Cc1ccc(C(F)(F)F)cc1)C(=O)O; NEtPhe(4-Me) = CCN[C@@H](Cc1ccc(C)cc1)C(=O)O; X135 = O=C([C@H](Cc1cc(F)ccc1F)N[*:1])[*:2]; NMePhe(2-Me) = CN[C@@H](Cc1ccccc1C)C(=O)O; NMedβ3hAla = C[C@H](CC(=O)[*:2])N(C)[*:1]; NMeGly(cPent) = CN[C@H](C(=O)O)C1CCCC1; Phe(3-I) = N[C@@H](Cc1cccc(I)c1)C(=O)O; Met(O2) = CS(=O)(=O)CC[C@H](N)C(=O)O; NMeGly(cBu) = CN[C@H](C(=O)O)C1CCC1; NMeY = CN[C@@H](Cc1ccc(O)cc1)C(=O)O; NMeCha = CN[C@@H](CC1CCCCC1)C(=O)O; Hyp = O=C(O)[C@@H]1C[C@@H](O)CN1; NMeChg = CN[C@H](C(=O)O)C1CCCCC1; NMeI = CC[C@H](C)[C@H](NC)C(=O)O; dNMeF = CN[C@H](Cc1ccccc1)C(=O)O; N(CH2CH2)2CF2 = FC1(F)CCN(*)CC1; NMeβAla = CN(CCC(=O)[*:2])[*:1]; NMeD = CN[C@@H](CC(=O)O)C(=O)O; NMeL = CN[C@@H](CC(C)C)C(=O)O; NMeV = CN[C@H](C(=O)O)C(C)C; d(β3hA) = C[C@@H](N)CC(=O)O; NMeAbu = CC[C@H](NC)C(=O)O; NMeS = CN[C@@H](CO)C(=O)O; NMeA = CN[C@@H](C)C(=O)O; NMeAib = CNC(C)(C)C(=O)O; Nle = CCCC[C@H](N)C(=O)O; Piperidide = C1CCN(*)CC1; Pra = C#CC[C@H](N)C(=O)O; Ac5c = NC1(C(=O)O)CCCC1; Aze = O=C(O)[C@@H]1CCN1; Ac4c = NC1(C(=O)O)CCC1; Cyclobutyl = C1CC(*)C1; Aib = CC(C)(N)C(=O)O; Sar = CNCC(=O)O

This test has as its system Human pancreatic cancer cell line AsPC-1 (G12D mutation Kras). The test can be described thus: AsPC-1 cell growth inhibition (AsPC-1 CGI). Format: cell-based. As to conditions: read-out: AsPC-1 cell growth inhibition, 50% growth inhibitory concentration (IC50 value); 96 hours, CellTiter-Glo, values classified in ranges. For orientation: ATP-based viability assays read luminescence as a measure of living cells.
Description: Test compounds were serially dilated with dimethyl sulfoxide, and 200 nL was then dispensed to a U-bottom 96-well plate using Labcyte Echo. […] The cell suspension was dispensed to a. plate containing a test compound at 100 μL per well and incubated at 37° C. in a 5% carbon dioxide gas incubator. 96 hours later, 80 μL of CellTiter-Glo (Promega) was added to each well and fluorescence was measured.
For the compound `CCO[C@@H]1C[C@H]2C(=O)NC3(CCC3)C(=O)N(C)[C@@H]([C@@H](C)CC)C(=O)N(C)[C@H](C)CC(=O)N(C)[C@@H](CC(C)C)C(=O)N[C@@H]([C@@H](C)CC)C(=O)N(C)[C@@H](C)C(=O)N3CC[C@H]3C(=O)N(CC)[C@@H](Cc3ccc(C)cc3)C(=O)N(C)CC(=O)N[C@@H](CCc3ccc(C(F)(F)F)c(Cl)c3)C(=O)N2C1` [Compound 626] (cyclo([Ac4c][NMeI][NMedβ3hAla][NMeL]I[NMeA][Aze][NEtPhe(4-Me)][Sar][hPhe(3-Cl-4-CF3)][Hyp](Et))), the IC50 is not above 20 nM. The value for `C#CC[C@@H]1NC(=O)[C@H](Cc2cccc(I)c2)NC(=O)CN(C)C(=O)[C@H](Cc2ccc(C(F)(F)F)cc2)N(C)C(=O)[C@@H]2CCN2C(=O)[C@H](C)N(C)C(=O)[C@H]([C@@H](C)CC)NC(=O)[C@H](CC(C)C)N(C)C(=O)C[C@@H](C(=O)N2CCCCC2)N(C)C(=O)[C@H](CC(C)C)NC(=O)C(C)(C)N(C)C1=O` [Compound 1258] ([NMeL]I[NMeA][Aze][NMePhe(4-CF3)][Sar][Phe(3-I)][Pra][NMeAib]L[NMeD]-Piperidide; lactam N-11) was more than 500 nM. The value for `CC[C@H](C)[C@@H]1NC(=O)[C@H](CC(C)C)N(C)C(=O)C[C@@H](C)NC(=O)[C@H](C(C)C)N(C)C(=O)C2(CCCC2)NC(=O)[C@@H]2CCCN2C(=O)[C@H](CCc2ccc(C(F)(F)F)c(Cl)c2)NC(=O)CN(C)C(=O)[C@H](Cc2ccccc2C)N(C)C(=O)CN(C)C(=O)CN(C)C1=O` [Compound 1614] (cyclo([Ac5c][NMeV][d(β3hA)][NMeL]I[Sar][Sar][NMePhe(2-Me)][Sar][hPhe(3-Cl-4-CF3)]P)) was more than 500 nM; that for `CC[C@H](C)[C@@H]1NC(=O)[C@H](CC(C)C)N(C)C(=O)C[C@@H](C(=O)N2CCCCC2)N(C)C(=O)[C@H](C(C)C)N(C)C(=O)C(C)(C)NC(=O)[C@H](CC(=O)N2CCC(F)(F)CC2)N(C)C(=O)[C@H](CCc2ccc(C(F)(F)F)c(Cl)c2)NC(=O)CN(C)C(=O)[C@H](CC2CCCCC2)N(C)C(=O)CN(C)C(=O)CN(C)C1=O` [Compound 463] ([NMeL]I[Sar][Sar][NMeCha][Sar][hPhe(3-Cl-4-CF3)][NMeD](N(CH2CH2)2CF2)[Aib][NMeV][NMeD]-Piperidide; lactam N-11) was more than 500 nM; that for `CC(C)C[C@H]1C(=O)N[C@@H](CCS(C)(=O)=O)C(=O)N(C)CC(=O)N(C)CC(=O)N(C)[C@@H](CC2CCCCC2)C(=O)N(C)CC(=O)N[C@@H](CCc2ccc(C(F)(F)F)c(Cl)c2)C(=O)N2CCC[C@H]2C(=O)NC2(CCCC2)C(=O)N(C)[C@@H](C2CCCCC2)C(=O)N(C)[C@H](C(=O)N2CCCCC2)CC(=O)N1C` [Compound 283] ([NMeL][Met(O2)][Sar][Sar][NMeCha][Sar][hPhe(3-Cl-4-CF3)]P[Ac5c][NMeChg][NMeD]-Piperidide; lactam N-11) was more than 500 nM. The value for `CCCC[C@@H]1NC(=O)[C@H](Cc2cc(F)ccc2F)NC(=O)CN(C)C(=O)[C@H](Cc2ccc(OC)cc2)N(C)C(=O)[C@@H]2CCN2C(=O)[C@H](C)N(C)C(=O)[C@H]([C@@H](C)CC)NC(=O)[C@H](CC)N(C)C(=O)C[C@@H](C(=O)N2CCCCC2)N(C)C(=O)[C@H](CC(C)C)NC(=O)C(C)(C)N(C)C1=O` [Compound 1268] ([NMeAbu]I[NMeA][Aze][NMeY](Me)[Sar][X135][Nle][NMeAib]L[NMeD]-Piperidide; lactam N-11) was more than 500 nM; that for `CC[C@H](C)[C@@H]1NC(=O)CCN(C)C(=O)[C@@H](Cc2ccccc2)N(C)C(=O)[C@H](C2CCCC2)N(C)C(=O)C2(CCCC2)NC(=O)[C@@H]2CCCN2C(=O)[C@H](CCc2ccc(C(F)(F)F)c(Cl)c2)NC(=O)CN(C)C(=O)[C@H](CC2CCCCC2)N(C)C(=O)CN(C)C(=O)CN(C)C1=O` [Compound 753] (cyclo([Ac5c][NMeGly(cPent)][dNMeF][NMeβAla]I[Sar][Sar][NMeCha][Sar][hPhe(3-Cl-4-CF3)]P)) was more than 500 nM. Consider `CC[C@H](C)[C@@H]1NC(=O)[C@H](CC(C)C)N(C)C(=O)C[C@@H](C(=O)N2CCCCC2)N(C)C(=O)[C@H](COC2CCC2)N(C)C(=O)C2(CCCC2)NC(=O)[C@@H]2CCCN2C(=O)[C@H](CCc2ccc(C(F)(F)F)c(Cl)c2)NC(=O)CN(C)C(=O)[C@H](CC2CCCCC2)N(C)C(=O)CN(C)C(=O)CN(C)C1=O` [Compound 585] ([NMeL]I[Sar][Sar][NMeCha][Sar][hPhe(3-Cl-4-CF3)]P[Ac5c][NMeS](Cyclobutyl)[NMeD]-Piperidide; lactam N-11), for which the IC50 was more than 500 nM. The value for `CC[C@H](C)[C@@H]1NC(=O)[C@H](CC(C)C)N(C)C(=O)C[C@@H](C)NC(=O)[C@H](C2CCC2)N(C)C(=O)C2(CCCC2)NC(=O)[C@@H]2CCCN2C(=O)[C@H](CCc2ccc(C(F)(F)F)c(Cl)c2)NC(=O)CN(C)C(=O)[C@H](CC2CCCCC2)N(C)C(=O)CN(C)C(=O)CN(C)C1=O` [Compound 183] (cyclo([Ac5c][NMeGly(cBu)][d(β3hA)][NMeL]I[Sar][Sar][NMeCha][Sar][hPhe(3-Cl-4-CF3)]P)) was more than 500 nM.
